From patent US20250295654A1, “METHODS OF TREATING METABOLIC DISEASES WITH FUSED BICYCLIC PYRAZOLES” (Belite Bio, Inc, priority 2019, published 2025)
Where “and” joins values, the source holds several entries; their conditions need not be identical. Equal values may be shown once. Marks after values point to notes of the source that are not given here.

How the values were obtained:
Assay type in all cases: in vivo
[1] = Compound 2 single dose rat PK study; details: male Sprague Dawley rats, single iv dose 2 mg/kg; for Tmax: first plasma collection time or observed time of highest plasma concentration
Experimental: A pharmacokinetic study of Compound 2 following a single intravenous or oral dose administration to male Sprague Dawley rats was conducted, the results of which are found in Table 5 and FIGS. 21-24.

[2] = Compound 1 single dose rat PK study; details: male Sprague Dawley rats, single iv dose 2 mg/kg, first plasma collection time listed as Tmax
Experimental: A pharmacokinetic study of Compound 1 following a single intravenous or oral dose administration to male Sprague Dawley rats was conducted, the results of which are found in Table 3 and FIGS. 9-14.

[3] = Compound 1 single dose mouse PK study; details: male CD-1 mice, single iv dose 2 mg/kg; first plasma collection time
Experimental: A pharmacokinetic study of Compound 1 following a single intravenous or oral dose administration to male CD-1 mice was conducted, the results of which are found in Table 4 and FIGS. 15-20.

Row | Tmax ([1]; Mean) [min] | AUCinf ([1]; individual rat, 2 mg/kg) | Cl ([1]; individual rat, 2 mg/kg) | Tmax ([1]; individual rat, 2 mg/kg) [min] | Tmax ([2]; Mean) [min] | Tmax ([2]; individual rat) [min] | Tmax [3] | SMILES
1 | 13.3 | 4027 ng·h/mL and 5052 ng·h/mL | 4.13 mL/min/kg and 3.3 mL/min/kg | 4.98 | – | – | – | CC(=O)N1Cc2[nH]nc(C(=O)N3CCC(c4ccc(F)c(F)c4C(F)(F)F)CC3)c2C1 [Compound 2, 1-(3-(4-(3,4-difluoro-2-(trifluoromethyl)phenyl)piperidine-1-carbonyl)-4,6-dihydropyrrolo[3,4-c]pyrazol-5(1H)-yl)ethan-1-one]
2 | – | – | – | – | 4.98 | 4.98 | 0.083^b hr | CC(=O)N1CCc2c(C(=O)N3CCC(c4ccc(F)c(F)c4C(F)(F)F)CC3)n[nH]c2C1 [Compound 1, 1-(3-(4-(3,4-difluoro-2-(trifluoromethyl)phenyl)piperidine-1-carbonyl)-1,4,5,7-tetrahydro-6H-pyrazolo[3,4-c]pyridin-6-yl)ethan-1-one]
